Laboratory results reported in US9801387B2, “Compositions comprising a biological control agent and an insecticide” (Bayer CropScience AG, priority 2012, dated 2017).

Assays:
Assay type in all cases: in vivo
Tetranychus urticae = Tetranychus urticae - spray test, OP-resistant; settings: mortality, French beans sprayed
Description: (§1) For all examples the efficiencies of the compositions comprising at least one BCA and at least one specific insecticide has been determined by the “Colby-formula”: The expected efficacy of a given combination of two compounds is calculated as follows (see Colby, S. R., “Calculating Synergistic and antagonistic Responses of Herbicide Combinations”, Weeds 15, pp. 20-22, 1967): • If • X is the efficacy expressed in % mortality of the untreated control for test compound A at a concentration of m ppm respectively m g/ha, • Y is the efficacy expressed in % mortality of the untreated control for test compound B at a concentration of n ppm respectively n g/ha, • E is the efficacy expressed in % mortality of the untreated control using the mixture of A and B at m and n ppm respectively m and n g/ha, then is E=X+Y−(X×Y/100)
(§2) If the observed insecticidal efficacy of the combination is higher than the one calculated as “E”, then the combination of the two compounds is more than additive, i.e., there is a synergistic effect.
Tetranychus urticase—Spray Test, OP-resistant […]
(§3) After the specified period of time, mortality in % is determined. […] The mortality values determined thus are recalculated using the Colby-formula (see above).

Phaedon cochleariae = Phaedon cochleariae - spray test; settings: mortality of larvae, 100 g ai/ha
Description: as §1, §2
Phaedan Cochleariae—Spray Test […]
as §3

Myzus persicae = Myzus persicae - spray test (MYZUPE); settings: mortality
Description: as §1, §2
Myzus persicae—Spray Test (MYZUPE) […]
as §3

| SMILES | Efficacy in % after 2^d (Tetranychus urticae; 2 d, 100 g ai/ha) [%] | Efficacy in % after 6^d (Phaedon cochleariae) [%] | Efficacy in % after 6^d (Myzus persicae; 6 d, 100 g/ha) [%] | Efficacy in % after 6^d (Tetranychus urticae; 6 d, 20 g ai/ha) [%] | Efficacy in % after 1^d (Myzus persicae; Chinese cabbage leaf-disks sprayed, 1 d, 4 g/ha) [%] |
| --- | --- | --- | --- | --- | --- |
| Cc1cc(F)c(-n2nc(C(F)(F)F)nc2N)cc1[S+]([O-])CC(F)(F)F (centres unmarked) [I277, 1-{2-fluoro-4-methyl-5-[(2,2,2-trifluorethyl)sulfinyl]phenyl}-3-(trifluoromethyl)-1H-1,2,4-triazol-5-amine] | 0 | 0 | 0 |  |  |
| O=C1C=C(N(Cc2ccc(Cl)nc2)CC(F)F)CO1 [Flupyradifurone (I262), Flupyradifurone, reference compound] |  |  |  | 0 | 0 |
